Data from EPA's ToxRefDB 2.

Tests used:
dog [1] = details: Chronic toxicity, beagle, Oral, Feed, dose end: 364 day, group: systemic
rat [2] = details: Chronic toxicity; wistar; Oral; Feed; dose end: 364 day; group: systemic; systemic / pathology gross / eye / opacity + systemic / pathology microscopic / eye / corneal pannus + systemic / pathology microscopic / …
rat [3] = details: Prenatal developmental toxicity study, wistar, Oral, Gavage/Intubation, dose end: 19 GD
rat [4] = details: Multigenerational reproductive toxicity study, wistar, Oral, Feed, dose end: 2 generation
rabbit [5] = details: Prenatal developmental toxicity study, new zealand white, Oral, Gavage/Intubation, dose end: 28 GD
mouse [6] = details: Subchronic oral toxicity in rodents, other, Feed, dose end: 91 day, group: systemic
rat [7] = details: Subchronic oral toxicity in rodents, wistar, Feed, dose end: 13 week, group: systemic
rat [8] = details: Carcinogenicity, wistar, Oral, Feed, dose end: 24 month, group: systemic
rabbit [9] = details: Prenatal developmental toxicity study, himalayan, Oral, Gavage/Intubation, dose end: 28 GD
mouse [10] = details: Carcinogenicity, other, Oral, Feed, dose end: 78 week, group: systemic
dog [11] = details: Subchronic oral toxicity in nonrodent, beagle, Feed, dose end: 90 day, group: systemic
[12] = systemic / in life observation / food consumption / food efficiency + systemic / urinalysis / ketones / ketones + systemic / urinalysis / ph…
[13] = group: developmental, developmental / developmental malformation / bone / full supernumerary + developmental / developmental malformation / bone / misshapen + …
[14] = group: maternal, systemic / in life observation / body weight / body weight gain
[15] = group: offspring, systemic / organ weight / spleen / absolute + systemic / organ weight / spleen / relative to body weight
[16] = group: parental, systemic / organ weight / kidney / absolute + systemic / organ weight / kidney / relative to body weight + systemic / organ weight / liver…
[17] = group: parental, systemic / organ weight / thyroid gland / absolute
[18] = group: developmental, developmental / developmental malformation / bone / ossification sites + developmental / developmental malformation / bone / supernumerary
[19] = group: developmental, developmental / developmental malformation / bone / ossification sites + developmental / developmental malformation / bone / supernumerary…
[20] = group: maternal, systemic / clinical chemistry / tyrosine / tyrosine
[21] = systemic / in life observation / food consumption / food consumption + systemic / organ weight / testes / absolute + systemic / organ weight…
[22] = systemic / pathology gross / thyroid gland / altered colloid
[23] = systemic / in life observation / mortality / mortality + systemic / pathology gross / lymph node / enlarged + systemic / pathology gross / …
[24] = group: developmental, developmental / developmental malformation / bone / [other] + developmental / developmental malformation / bone / incomplete ossification + …
[25] = group: maternal, reproductive / reproductive performance / aborted / aborted + systemic / in life observation / body weight / body weight gain + systemic / …
[26] = systemic / in life observation / body weight / body weight + systemic / in life observation / body weight / body weight gain
[27] = systemic / in life observation / body weight / body weight + systemic / in life observation / body weight / body weight gain + systemic / …
[28] = systemic / in life observation / body weight / body weight gain + systemic / in life observation / food consumption / food efficiency + …
[29] = systemic / urinalysis / ketones / ketones

## Cc1c(C(=O)c2c[nH]n(C)c2=O)ccc(S(C)(=O)=O)c1C1=NOCC1 [Topramezone]
Dog [1]; [12]
  LEL: 2.9 mg/kg/day
  NEL: < 2.9 mg/kg/day
Dog [1]; systemic / pathology microscopic / thyroid gland / hyperplasia
  LOAEL: 15.3 mg/kg/day
Dog [1]; systemic / pathology microscopic / thyroid gland / hyperplasia + systemic / in life observation / body weight / body weight + systemic / in …
  NOAEL: 2.9 mg/kg/day
Rat [2]
  LEL: 3.9 mg/kg/day
  LOAEL: 3.9 mg/kg/day
  NEL: 0.4 mg/kg/day
  NOAEL: 0.4 mg/kg/day
Rat [3]; [13]
  LEL: 100 mg/kg/day
  LOAEL: 100 mg/kg/day
  NEL: < 100 mg/kg/day
  NOAEL: < 100 mg/kg/day
Rat [3]; [14]
  LEL: 100 mg/kg/day
  LOAEL: 100 mg/kg/day
  NEL: < 100 mg/kg/day
  NOAEL: < 100 mg/kg/day
Rat [4]; group: offspring, developmental / developmental landmark / preputial separation / preputial separation + developmental / offspring survival late / viability …
  NOAEL: 0.4 mg/kg/day
Rat [4]; group: offspring, developmental / developmental landmark / preputial separation / preputial separation + systemic / in life observation / body weight / litter…
  LOAEL: 4.2 mg/kg/day
Rat [4]; [15]
  LEL: 0.4 mg/kg/day
  NEL: < 0.4 mg/kg/day
Rat [4]; [16]
  LOAEL: 4.2 mg/kg/day
  NOAEL: 0.4 mg/kg/day
Rat [4]; [17]
  LEL: 0.5 mg/kg/day
  NEL: < 0.5 mg/kg/day
Rabbit [5]; [18]
  LEL: 5 mg/kg/day
  LOAEL: 5 mg/kg/day
Rabbit [5]; [19]
  NEL: 0.5 mg/kg/day
  NOAEL: 0.5 mg/kg/day
Rabbit [5]; [20]
  LEL: 0.5 mg/kg/day
  LOAEL: 0.5 mg/kg/day
  NEL: < 0.5 mg/kg/day
  NOAEL: < 0.5 mg/kg/day
Mouse [6]; [21]
  LOAEL: > 2290 mg/kg/day
  NOAEL: ≥ 2290 mg/kg/day
Mouse [6]; systemic / organ weight / liver / relative to body weight
  LEL: 406 mg/kg/day
Mouse [6]; systemic / organ weight / liver / relative to body weight + systemic / in life observation / body weight / body weight gain + systemic / in …
  NEL: 51 mg/kg/day
Rat [7]; [22]
  LEL: 1.1 mg/kg/day
  NEL: < 1.1 mg/kg/day
Rat [7]; systemic / pathology microscopic / pancreas / degeneration
  LOAEL: 2.1 mg/kg/day
Rat [7]; systemic / pathology microscopic / pancreas / degeneration + systemic / clinical chemistry / alkaline phosphatase (alp/alk) / alkaline …
  NOAEL: 1.1 mg/kg/day
Rat [8]; [23]
  LEL: 0.4 mg/kg/day
  NEL: < 0.4 mg/kg/day
  NOAEL: 0.4 mg/kg/day
Rat [8]; systemic / pathology microscopic / thyroid gland / hyperplasia + systemic / pathology microscopic / thyroid gland / hypertrophy + systemic…
  LOAEL: 3.6 mg/kg/day
Rabbit [9]; [24]
  LEL: 50 mg/kg/day
  LOAEL: 50 mg/kg/day
  NEL: < 50 mg/kg/day
  NOAEL: < 50 mg/kg/day
Rabbit [9]; [25]
  LEL: 450 mg/kg/day
  LOAEL: 450 mg/kg/day
  NEL: 150 mg/kg/day
  NOAEL: 150 mg/kg/day
Mouse [10]; [26]
  LOAEL: 19 mg/kg/day
  NOAEL: < 19 mg/kg/day
Mouse [10]; [27]
  LEL: 19 mg/kg/day
  NEL: < 19 mg/kg/day
Dog [11]; [28]
  LOAEL: 1510 mg/kg/day
  NOAEL: 535 mg/kg/day
Dog [11]; [29]
  LEL: 182 mg/kg/day
  NEL: < 182 mg/kg/day
